Laboratory results from US9567318B2, “Substituted pyrimidine compounds and uses thereof” (Memorial Sloan-Kettering Cancer Center, priority 2009, dated 2017).

Columns and labels:
Type in all cases: cell-based, human
[1] = tested on: HER2, Raf-1, Akt, Hsp70 in SKBr3 cells; assay: Western blotting of Hsp90 onco-client proteins and Hsp70 in SKBr3 cells
Procedure: FIG. 3. Testing strategy for the discovery of YK5. a, b) SKBr3 cells were treated for 24 h with the indicated concentrations of inhibitors and cells were lysed for western blot (WB) analysis. β-actin was used as loading control. The data are consistent with those obtained from multiple repeat experiments (n≧3). c) The ability of the indicated inhibitors to compete with GM-Cy3B for Hsp90 binding in SKBr3 cell extracts was examined by fluorescence polarization. Values recorded in wells with added inhibitor were normalized to values read in control wells and plotted against the concentration of tested inhibitor. Drugs were assayed in triplicate. All compounds were used as DMSO stocks. Points, mean; bars, s.d. d) Growth inhibition: SKBr3 cells were incubated in triplicate with increasing concentrations of compound and growth over 72 h was assessed. Y-axis values below 0% represent cell death of the starting population. HER2 degradation was analyzed as in panel a), and gels were quantified by densitometry. Recorded values were normalized to control (vehicle only treated cells) and data graphed against YK5 concentration. Error bars represent the s.d. of the mean (n=3).
FIG. 8. […] Points, mean; bars, s.d. Yaxis values below 0% represent cell death of the starting population. c) Streptavidin beads (50 μl) were incubated with the indicated concentrations of YK55, YK56 or D-biotin to immobilize the corresponding compounds on beads. Beads (50 μl) were probed with SKBr3 cell extracts (500 μg), and the precipitated Hsp70 analyzed by western blot and quantified by […]. Results from three independent experiments were graphed to determine the relative binding affinity of YKs. Points, mean; bars, s.d. d) Structure of representative YKs. YK55 and YK56 are the biotinylated derivatives of YK54 and YK57, respectively.
FIG. 9. […] Cells were treated for 24 h with the indicated concentrations of YK149 and YK5. Cells were lysed and proteins analyzed by western blotting. b) Examples of the compounds of the present subject matter inhibit the activity of the oncogenic STAT3 in the triple-negative breast cancer cells MDA-MB-468. Cells were treated for the indicated times with compounds or vehicle and proteins analyzed by western blot. (c) Examples of the compounds of the present subject matter dose-dependently induce apoptosis in the acute myeloid leukemia cells MOLM13. Cells were treated for 24 h with the indicated concentration of compounds and the increase in caspase3,7 activity was measured and compared to only vehicle (DMSO) treated cells. Caspase-3,7 activity was a measure of compound potency in cleaving the caspase substrate Z-DEVD-R110 and releasing rhodamine. The percentage increase in apoptotic cells was calculated by comparing the fluorescence readings obtained from compounds with those obtained from vehicle (DMSO)-treated cells.
Western Blotting. Cells were grown to 60-70% confluence and treated with inhibitor or DMSO vehicle for the indicated times. Protein lysates were prepared in 50 mM Tris pH 7.4, 150 mM NaCl and 1% NP-40 lysis buffer. Protein concentrations were measured using the BCA kit (Pierce) according to the manufacturer's instructions. […]

[2] = tested on: Kasumi-1 acute myeloid leukemia cells; assay: Growth Inhibition Assay (Alamar blue), Kasumi-1; conditions: Kasumi-1 cells
Procedure: (§1) The IC50 values listed for some of these compounds illustrate the antiproliferative effects of the subject compounds and were obtained using the Growth Inhibition assays described herein.
(§2) Growth Inhibition Assay. Antiproliferative effects of inhibitors were evaluated using the dye Alamar blue. This reagent offers a rapid objective measure of cell viability in cell culture, and it uses the indicator dye resazurin to measure the metabolic capacity of cells, an indicator of cell viability. Briefly, cells were plated on Costar 96-well plates. For attached cells (such as SKBr3, MDA-MB-468, LNCaP, MRCS), 8,000 cells/well were used. For suspension cells (such as MOLM-13, Kasumi-1, OCI-Ly7, PBL), 20,000 cells/well were plated. Cells were allowed to incubate for 24 h at 37° C. before drug treatment. Drugs were added in triplicates at the indicated concentrations, and the plate was incubated for 72 h. Alamar Blue (440 μM) was added, and the plate read 6 h later using the Analyst GT (Fluorescence intensity mode, excitation 530 nm, emission 580 nm, with 560=dichroic mirror). Results were analyzed using the Softmax Pro software. The percentage cell growth inhibition was calculated by comparing fluorescence readings obtained from treated versus control cells, accounting for initial cell population (time zero).

[3] = tested on: SKBr3 HER2+ breast cancer cells; assay: Growth Inhibition Assay (Alamar blue), SKBr3
Procedure: as §1, §2

[4] = tested on: MDA-MB-468, SKBr3, LNCaP, MOLM-13, Kasumi-1, OCI-Ly7 and HuH7 cells; assay: Growth inhibition in a panel of cancer cells; conditions: growth over 72 h
Procedure: Tested were MDA-MB-468 triple-negative breast cancer cells, SKBr3 HER2+breast cancer cells, LNCaP mAR+prostate cancer cells, MOLM-13 and Kasumi-1 acute myeloid leukemia cells, OCI-Ly7 diffuse large B-cell lymphoma cells and HuH7 hepatocellular carcinoma cells. […] In cancer cells, half growth inhibitory concentrations ([…]) recorded for YK5 were in high agreement with its potency to degrade Hsp90 onco-clients.
as §2

Row | SMILES | IC50 ([2]; Homo sapiens, Kasumi 1, 72 h) | IC50 ([3]; Homo sapiens, SK-BR-3, 72 h) | other results
1 | CCOc1nc(N2CCN(C)CC2)nc(OCC)c1Sc1nc(N)cc(NC(=O)CC)n1 [YK31, N-(6-amino-2-(4,6-diethoxy-2-(4-methylpiperazin-1-yl)pyrimidin-5-ylthio)pyrimidin-4-yl)propionamide] | 34.1 µM |  | lowering of biological activity, ethylamide versus acrylamide YK30 ([1]; FIG. 8a, relative to YK30): 30 fold
2 | C=CC(=O)Nc1ccnc(Sc2c(OC)nc(N3CCN(C)CC3)nc2OC)n1 [YK71, N-(2-(4,6-dimethoxy-2-(4-methylpiperazin-1-yl)pyrimidin-5-ylthio)pyrimidin-4-yl)acrylamide] | 0.8 µM | 1.2 µM | 
3 | COc1nc(N2CCOCC2)nc(OC)c1Sc1cccc(N)c1 [PDP2, 3-(4,6-dimethoxy-2-morpholinopyrimidin-5-ylthio)aniline] | 79.7 µM | > 100 µM | 
4 | C=CC(=O)Nc1ccnc(Sc2c(OC)nc(N3CCCC3)nc2OC)n1 [YK74, N-(2-(4,6-dimethoxy-2-(pyrrolidin-1-yl)pyrimidin-5-ylthio)pyrimidin-4-yl)acrylamide] | 42.2 µM | 4.3 µM | 
5 | C=CC(=O)Nc1ccnc(Sc2c(OC)nc(N3CC[N+](C)([O-])CC3)nc2OC)n1 [YK80, 4-(5-(4-acrylamidopyrimidin-2-ylthio)-4,6-dimethoxypyrimidin-2-yl)-1-methylpiperazine 1-oxide] | > 100 µM | 31.1 µM | 
6 | C=CC(=O)Nc1cccc(Sc2c(OC)nc(N3CCOCC3)nc2OC)c1 [PDP3, N-(3-(4,6-dimethoxy-2-morpholinopyrimidin-5-ylthio)phenyl)acrylamide] | 11.4 µM | 16.5 µM | 
7 | C=CC(=O)Nc1ccnc(Sc2c(OC)nc(OC)nc2OC)n1 [YK76, N-(2-(2,4,6-trimethoxypyrimidin-5-ylthio)pyrimidin-4-yl)acrylamide] | 22.5 µM | 2.4 µM | 
8 | CC(C)NCCCn1c(Sc2cc3c(cc2I)OCO3)nc2c(N)ncnc21 [PU-H71, reference compound] |  |  | growth of all tested cancer cells [4]: inhibited the growth of all tested cancer cells; feed-back induction of Hsp70 (heat shock response) ([1]; SKBr3 cells, 24 h): potently activated a heat shock response
9 | CCC(=O)Nc1cccc(Sc2c(OC)nc(N3CCOCC3)nc2OC)c1 [PDP4, N-(3-(4,6-dimethoxy-2-morpholinopyrimidin-5-ylthio)phenyl)propionamide] | > 100 µM | > 100 µM | 
10 | C=CC(=O)Nc1ccnc(Sc2c(OC)nc(N3CCOCC3)nc2OC)n1 [YK73, N-(2-(4,6-dimethoxy-2-morpholinopyrimidin-5-ylthio)pyrimidin-4-yl)acrylamide] | 1.9 µM | 11.6 µM | 
11 | CCC(=O)Nc1ccnc(Sc2c(OC)nc(OC)nc2OC)n1 [YK77, N-(2-(2,4,6-trimethoxypyrimidin-5-ylthio)pyrimidin-4-yl)propionamide] | 62.3 µM | 79.2 µM | 
12 | C=C(C)C(=O)Nc1cccc(Sc2c(OC)nc(N3CCN(C)CC3)nc2OC)c1 [YK132, N-(3-(4,6-dimethoxy-2-(4-methylpiperazin-1-yl)pyrimidin-5-ylthio)phenyl)methacrylamideN-(3-(4,6-dimethoxy-2-(4-methylpiperazin-1-yl)pyrimidin-5-ylthio)phenyl)methacrylamide] |  |  | IC50 ([3]; 72 h): 17.8 µM; IC50 ([2]; 72 h): 7.7 µM

Second part, led by results:

Row | IC50 ([2]; Homo sapiens, Kasumi 1, 72 h) | IC50 ([3]; Homo sapiens, SK-BR-3, 72 h) | SMILES | other results
13 | 13.9 µM |  | COc1nc(N2CCN(C)CC2)nc(OC)c1Sc1cccc(NC(=O)CN)c1 [YK149, 2-amino-N-(3-(4,6-dimethoxy-2-(4-methylpiperazin-1-yl)pyrimidin-5-ylthio)phenyl)acetamide] | degradation of Hsp90 onco-client proteins (HER2, Raf-1, Akt) ([1]; SKBr3 cells, 24 h, western blot): dose-dependently reduce the steady-state levels of HER2 and Raf-1; IC50 ([2]; 72 h): 21 µM
14 | > 100 µM | 99.5 µM | CCC(=O)Nc1ccnc(Sc2c(OC)nc(N3CCCC3)nc2OC)n1 [YK106, N-(2-(4,6-dimethoxy-2-(pyrrolidin-1-yl)pyrimidin-5-ylthio)pyrimidin-4-yl)propionamide] | 
15 | 35.2 µM | 99.5 µM | CCC(=O)Nc1cccc(Sc2c(OC)nc(N)nc2OC)c1 [YK140, N-(3-(2-amino-4,6-dimethoxypyrimidin-5-ylthio)phenyl)propionamide] | 
16 | 20.1 µM | 25.8 µM | Cc1nc(N2CCN(C)CC2)nc(C)c1Sc1nccc(NC(=O)C2CC2)n1 [YK90, N-(2-(4,6-dimethyl-2-(4-methylpiperazin-1-yl)pyrimidin-5-ylthio)pyrimidin-4-yl)cyclopropanecarboxamide] | IC50 ([2]; 72 h): 27.1 µM
17 | > 100 µM | > 100 µM | COc1nc(N2CCCC2)nc(OC)c1Sc1nccc(NC(=O)C2CC2)n1 [YK110, N-(2-(4,6-dimethoxy-2-(pyrrolidin-1-yl)pyrimidin-5-ylthio)pyrimidin-4-yl)cyclopropanecarboxamide] | 
18 | 13.1 µM | 16.7 µM | C=C(C)C(=O)Nc1ccnc(Sc2c(C)nc(N3CCN(C)CC3)nc2C)n1 [YK88, N-(2-(4,6-dimethyl-2-(4-methylpiperazin-1-yl)pyrimidin-5-ylthio)pyrimidin-4-yl)methacrylamide] | 
19 | 30.5 µM | 37.3 µM | COc1nc(N2CCN(C)CC2)nc(OC)c1Sc1cccc(N)c1 [YK133, 3-(4,6-dimethoxy-2-(4-methylpiperazin-1-yl)pyrimidin-5-ylthio)aniline] | IC50 ([2]; 72 h): 25.4 µM
20 | 12 µM | 6.8 µM | Cc1nc(N2CCN(C)CC2)nc(C)c1Sc1nccc(NC(=O)c2ccco2)n1 [YK89, N-(2-(4,6-dimethyl-2-(4-methylpiperazin-1-yl)pyrimidin-5-ylthio)pyrimidin-4-yl)furan-2-carboxamide] | IC50 ([2]; 72 h): 7.5 µM
21 | 7.7 µM | 6.8 µM | C=CC(=O)Nc1cccc(Sc2c(OC)nc(N3CCN(C)CC3)nc2OC)c1 [YK129, N-(3-(4,6-dimethoxy-2-(4-methylpiperazin-1-yl)pyrimidin-5-ylthio)phenyl)acrylamide] | IC50 ([2]; 72 h): 9.9 µM
22 | 6.2 µM | 14.4 µM | C=CC(=O)Nc1ccnc(Sc2c(C)nc(N3CCOCC3)nc2C)n1 [YK117, N-(2-(4,6-dimethyl-2-morpholinopyrimidin-5-ylthio)pyrimidin-4-yl)acrylamide] | 
23 | > 100 µM | > 100 µM | CCC(=O)Nc1ccnc(Sc2c(C)nc(N3CCOCC3)nc2C)n1 [YK118, N-(2-(4,6-dimethyl-2-morpholinopyrimidin-5-ylthio)pyrimidin-4-yl)propionamide] | 
24 | 26.2 µM | 44.4 µM | CCC(=O)Nc1ccnc(Sc2c(C)nc(N3CCN(C)CC3)nc2C)n1 [YK86, N-(2-(4,6-dimethyl-2-(4-methylpiperazin-1-yl)pyrimidin-5-ylthio)pyrimidin-4-yl)propionamide] | 
25 | 15 µM | 20.7 µM | C/C=C/C(=O)Nc1cccc(Sc2c(OC)nc(N3CCN(C)CC3)nc2OC)c1 [YK131, (E)-N-(3-(4,6-dimethoxy-2-(4-methylpiperazin-1-yl)pyrimidin-5-ylthio)phenyl)but-2-enamide] | 
